Legend:
[1] = test system: distal gastrointestinal motility; conditions: gastrointestinally active 5-HT4 agonists, comparison; cited from earlier work
[2] = forced degradation study (acid, base, 3% hydrogen peroxide), LC-UV-MS; format: physicochemical; conditions: 250 nm
Procedure: Crystalline fine particle Form I of PRX-3140 potassium salt was subjected to a forced degradation study using acid, base, or hydrogen peroxide exposure for 24 hours. Samples were neutralized and analyzed using LC-UV-MS. [table] Sample Preparation: […] One mL of stock was added to four, 4 mL vials. […] After storage, the samples of acid and base were neutralized by addition of 1 mL their counter solution. […] Samples were analyzed using LC-UV-MS. Table 5 lists a comparison for the control, acid, base, and peroxide samples showing percent peak area versus relative retention time (RRT) at 250 nm. While some minor changes can be noted between the control with the acid and base samples, the overall purity (peak area) of the parent molecule is just slightly higher for the acid and base sample. Some of the minor impurities appear to be reacting with the acid or base, potentially reforming to the parent.

Row | percent peak area, RRT 1.05 (PRX-3140b) ([2]; Acid (1N HCl, 24 hours)) | percent peak area, RRT 1.05 (PRX-3140b) ([2]; Base (1N NaOH, 24 hours)) | percent peak area, RRT 1.05 (PRX-3140b) ([2]; Control (DI water, 24 hours)) | percent peak area, RRT 1.05 (PRX-3140b) ([2]; H2O2 (3%, 24 hours)) | Compound | distal gastrointestinal motility [1]
1 | – | – | – | – | CCCCCNC(=N)N/N=C/c1c[nH]c2ccc(OC)cc12 [tegaserod] | significant distal gastrointestinal motility observed
2 | < 0.03% | < 0.03% | < 0.03% | 9.1% | [7-(methylethyl)1,4,6-trioxo(5,7-dihydrothiopheno[2,3-b]pyridine-5-yl)]-N-(3-piperidylpropyl)carboxamide [PRX-3140b] | –

— patent publication US11993609B2, “Compositions and methods for oral delivery of crystalline PRX-3140 potassium salt” (Nanopharmaceutics, Inc., priority 2022, dated 2024)
